Experimental data published in patent US7781591B2, “Substituted 3-cyanopyridines as protein kinase inhibitors” (Wyeth LLC, priority 2006, dated 2010).

Target: T1, human PKCθ full length enzyme (Homo sapiens, UniProt Q04759)
T1 construct: human PKCθ full length enzyme (Panvera Cat# P2996); purchased Panvera P2996
Assay: PKCθ IMAP assay (fluorescence polarization)
Assay type: biochemical
Conditions: human PKCθ full length enzyme, IMAP; average value; read-out: IC50 PKCθ IMAP

T1 sequence (Q04759 whole entry): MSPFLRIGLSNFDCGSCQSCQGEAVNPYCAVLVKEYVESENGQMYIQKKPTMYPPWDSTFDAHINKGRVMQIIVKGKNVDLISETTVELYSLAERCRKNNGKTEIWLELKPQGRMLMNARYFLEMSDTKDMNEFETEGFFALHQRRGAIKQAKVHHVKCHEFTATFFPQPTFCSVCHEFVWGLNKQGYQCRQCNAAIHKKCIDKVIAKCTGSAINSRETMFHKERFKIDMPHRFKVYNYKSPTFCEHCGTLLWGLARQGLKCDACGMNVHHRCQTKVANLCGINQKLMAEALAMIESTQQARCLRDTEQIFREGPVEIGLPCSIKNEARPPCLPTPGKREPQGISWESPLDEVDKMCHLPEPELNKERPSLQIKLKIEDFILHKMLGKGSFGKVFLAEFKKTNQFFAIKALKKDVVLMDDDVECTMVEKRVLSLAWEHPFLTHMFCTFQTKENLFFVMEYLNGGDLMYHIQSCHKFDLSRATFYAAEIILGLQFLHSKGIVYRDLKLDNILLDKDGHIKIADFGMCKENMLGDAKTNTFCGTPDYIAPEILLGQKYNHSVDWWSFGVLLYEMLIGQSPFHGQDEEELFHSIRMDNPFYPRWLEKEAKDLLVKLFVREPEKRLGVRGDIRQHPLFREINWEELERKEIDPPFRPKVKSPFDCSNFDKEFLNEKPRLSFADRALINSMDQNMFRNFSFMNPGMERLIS

| Compound | IC50 |
| --- | --- |
| CN(C)Cc1ccc(-c2cccc(-c3cncc(C#N)c3Nc3cccc4[nH]ccc34)c2)s1 [Compound 315, 5-(3-{5-[(dimethylamino)methyl]-2-thienyl}phenyl)-4-(1H-indol-4-ylamino)nicotinonitrile] | 10 nM |
| CN(C)S(=O)(=O)c1ccccc1-c1cncc(C#N)c1Nc1cccc2[nH]ccc12 [Compound 316, 2-[5-cyano-4-(1H-indol-4-ylamino)pyridin-3-yl]-N,N-dimethylbenzenesulfonamide] | 1350 nM |
| CS(=O)(=O)Nc1ccc(-c2cncc(C#N)c2Nc2cccc3[nH]ccc23)cc1 [Compound 317, N-{4-[5-cyano-4-(1H-indol-4-ylamino)pyridin-3-yl]phenyl}methanesulfonamide] | 20 nM |
| N#Cc1cncc(-c2cc3ccccc3o2)c1Nc1cccc2[nH]ccc12 [Compound 318, 5-(1-benzofuran-2-yl)-4-(1H-indol-4-ylamino)nicotinonitrile] | 10 nM |
| N#Cc1cncc(-c2cccc3c2oc2ccccc23)c1Nc1cccc2[nH]ccc12 [Compound 319, 5-dibenzo[b,d]furan-4-yl-4-(1H-indol-4-ylamino)nicotinonitrile] | 60 nM |
| Cc1ccc(S(=O)(=O)n2cc(-c3cncc(C#N)c3Nc3cccc4[nH]ccc34)c3ccccc32)cc1 [Compound 320, 4-(1H-indol-4-ylamino)-5-{1-[(4-methylphenyl)sulfonyl]-1H-indol-3-yl}nicotinonitrile] | 30 nM |
| N#Cc1cncc(-c2cc3ccccc3s2)c1Nc1cccc2[nH]ccc12 [Compound 322, 5-(1-benzothien-2-yl)-4-(1H-indol-4-ylamino)nicotinonitrile] | 20 nM |
| COc1ccc(-c2cncc(C#N)c2Nc2cccc3[nH]ccc23)cc1 [Compound 323, 4-(1H-indol-4-ylamino)-5-(4-methoxyphenyl)nicotinonitrile] | 20 nM |
| COc1ccccc1-c1cncc(C#N)c1Nc1cccc2[nH]ccc12 [Compound 324, 4-(1H-indol-4-ylamino)-5-(2-methoxyphenyl)nicotinonitrile] | 20 nM |
| N#Cc1cncc(-c2cc3ccccc3[nH]2)c1Nc1cccc2[nH]ccc12 [Compound 325, 5-(1H-indol-2-yl)-4-(1H-indol-4-ylamino)nicotinonitrile] | 60 nM |
| CN(C)S(=O)(=O)c1ccc(-c2cncc(C#N)c2Nc2cccc3[nH]ccc23)cc1 [Compound 326, 4-[5-cyano-4-(1H-indol-4-ylamino)pyridin-3-yl]-N,N-dimethylbenzenesulfonamide] | 190 nM |
| N#Cc1cncc(-c2cccc(C(=O)O)c2)c1Nc1cccc2[nH]ccc12 [Compound 327, 3-[5-cyano-4-(1H-indol-4-ylamino)pyridin-3-yl]benzoic acid] | 120 nM |
| N#Cc1cncc(-c2cccc(CN)c2)c1Nc1cccc2[nH]ccc12 [Compound 328, 5-[3-(aminomethyl)phenyl]-4-(1H-indol-4-ylamino)nicotinonitrile] | 20 nM |
| COc1ccc(-c2cncc(C#N)c2Nc2cccc3c2CC(=O)N3)cc1OC [Compound 329, 5-(3,4-dimethoxyphenyl)-4-[(2-oxo-2,3-dihydro-1H-indol-4-yl)amino]nicotinonitrile] | 8210 nM |
| COCCNC(=O)c1ccc(-c2cncc(C#N)c2Nc2cccc3[nH]ccc23)cc1 [Compound 330, 4-[5-cyano-4-(1H-indol-4-ylamino)pyridin-3-yl]-N-(2-methoxyethyl)benzamide] | 130 nM |
| N#Cc1cncc(-c2ccc(OCCCl)cc2)c1Nc1cccc2[nH]ccc12 [Compound 332, 5-[4-(2-chloroethoxy)phenyl]-4-(1H-indol-4-ylamino)nicotinonitrile] | 8 nM |
| N#Cc1cncc(-c2ccc(OCCN3CCOCC3)cc2)c1Nc1cccc2[nH]ccc12 [Compound 334, 4-(1H-indol-4-ylamino)-5-[4-(2-morpholin-4-ylethoxy)phenyl]nicotinonitrile] | 30 nM |
| CN1CCN(CCOc2ccc(-c3cncc(C#N)c3Nc3cccc4[nH]ccc34)cc2)CC1 [Compound 335, 4-(1H-indol-4-ylamino)-5-{4-[2-(4-methylpiperazin-1-yl)ethoxy]phenyl}nicotinonitrile] | 10 nM |
| COc1ccc(-c2cncc(C#N)c2Nc2c(C)ccc3[nH]ccc23)cc1OC [Compound 336, 5-(3,4-dimethoxyphenyl)-4-[(5-methyl-1H-indol-4-yl)amino]nicotinonitrile] | 200 nM |
| COc1ccc(-c2cncc(C#N)c2Nc2cccc3[nH]ccc23)cc1OCCNCCCN1CCCC1=O [Compound 338, 4-(1H-indol-4-ylamino)-5-[4-methoxy-3-(2-{[3-(2-oxopyrrolidin-1-yl)propyl]amino}ethoxy)phenyl]nicotinonitrile] | 8 nM |

| Compound | IC50 |
| --- | --- |
| COc1ccc(-c2cncc(C#N)c2Nc2cccc3[nH]ccc23)cc1OCCNCCc1c[nH]cn1 [Compound 339, 5-[3-(2-{[2-(1H-imidazol-4-yl)ethyl]amino}ethoxy)-4-methoxyphenyl]-4-(1H-indol-4-ylamino)nicotinonitrile] | 10 nM |
| COc1ccc(-c2cncc(C#N)c2Nc2ccc3[nH]ccc3c2C)cc1OCCNCCCc1ccccc1 [Compound 342, 5-(4-methoxy-3-{2-[(3-phenylpropyl)amino]ethoxy}phenyl)-4-[(4-methyl-1H-indol-5-yl)amino]nicotinonitrile] | 1 nM |
| COc1ccc(-c2cncc(C#N)c2Nc2ccc3[nH]ccc3c2C)cc1OCCN1CCN(C)CC1 [Compound 343, 5-{4-methoxy-3-[2-(4-methylpiperazin-1-yl)ethoxy]phenyl}-4-[(4-methyl-1H-indol-5-yl)amino]nicotinonitrile] | 10 nM |
| COc1cc(-c2cncc(C#N)c2Nc2ccc3[nH]ccc3c2C)ccc1OCCNCCCc1ccccc1 [Compound 344, 5-(3-methoxy-4-{2-[(3-phenylpropyl)amino]ethoxy}phenyl)-4-[(4-methyl-1H-indol-5-yl)amino]nicotinonitrile] | 8 nM |
| COc1cc(-c2cncc(C#N)c2Nc2ccc3[nH]ccc3c2C)ccc1OCCN(C)C [Compound 345, 5-{4-[2-(dimethylamino)ethoxy]-3-methoxyphenyl}-4-[(4-methyl-1H-indol-5-yl)amino]nicotinonitrile] | 7 nM |
| N#Cc1cncc(-c2cccc(Br)c2)c1Nc1cccc2c1CC(=O)N2 [Compound 346, 5-(3-bromophenyl)-4-[(2-oxo-2,3-dihydro-1H-indol-4-yl)amino]nicotinonitrile] | 540 nM |
| Cc1c(Nc2c(C#N)cncc2-c2ccc(OCCCl)cc2)ccc2[nH]ccc12 [Compound 348, 5-[4-(2-chloroethoxy)phenyl]-4-[(4-methyl-1H-indol-5-yl)amino]nicotinonitrile] | 4 nM |
| COc1ccc(-c2cncc(C#N)c2Nc2cccc3[nH]c(C)cc23)cc1OC [Compound 349, 5-(3,4-dimethoxyphenyl)-4-[(2-methyl-1H-indol-4-yl)amino]nicotinonitrile] | 130 nM |
| Cc1c(Nc2c(C#N)cncc2-c2ccc(OCCN3CCN(C)CC3)cc2)ccc2[nH]ccc12 [Compound 350, 4-[(4-methyl-1H-indol-5-yl)amino]-5-{4-[2-(4-methylpiperazin-1-yl)ethoxy]phenyl}nicotinonitrile] | 8 nM |
| Cc1c(Nc2c(C#N)cncc2-c2ccc(OCCN3CCOCC3)cc2)ccc2[nH]ccc12 [Compound 351, 4-[(4-methyl-1H-indol-5-yl)amino]-5-[4-(2-morpholin-4-ylethoxy)phenyl]nicotinonitrile] | 20 nM |
| COc1ccc(-c2cncc(C#N)c2Nc2cccc3[nH]ccc23)cc1OCCNCCc1ccccc1 [Compound 353, 4-(1H-indol-4-ylamino)-5-(4-methoxy-3-{2-[(2-phenylethyl)amino]ethoxy}phenyl)nicotinonitrile] | 1 nM |
| COc1ccc(-c2cncc(C#N)c2Nc2cccc3[nH]ccc23)cc1OCCNCCc1cccnc1 [Compound 354, 4-(1H-indol-4-ylamino)-5-(4-methoxy-3-{2-[(2-pyridin-3-ylethyl)amino]ethoxy}phenyl)nicotinonitrile] | 4 nM |
| Cc1c(Nc2c(C#N)cncc2-c2ccc(OCCNCCCc3ccccc3)cc2)ccc2[nH]ccc12 [Compound 355, 4-[(4-methyl-1H-indol-5-yl)amino]-5-(4-{2-[(3-phenylpropyl)amino]ethoxy}phenyl)nicotinonitrile] | 3 nM |
| CN(C)CCCOc1ccc(-c2cncc(C#N)c2Nc2cccc3[nH]ccc23)cn1 [Compound 356, 6′-[3-(dimethylamino)propoxy]-4-(1H-indol-4-ylamino)-3,3′-bipyridine-5-carbonitrile] | 40 nM |
| Cc1c(Nc2c(C#N)cncc2-c2ccc(OCCCN(C)C)nc2)ccc2[nH]ccc12 [Compound 357, 6′-[3-(dimethylamino)propoxy]-4-[(4-methyl-1H-indol-5-yl)amino]-3,3′-bipyridine-5-carbonitrile] | 30 nM |
| N#Cc1cncc(-c2cccc(O)c2)c1Nc1cccc2[nH]ccc12 [Compound 358, 5-(3-hydroxyphenyl)-4-(1H-indol-4-ylamino)nicotinonitrile] | 10 nM |
| N#Cc1cncc(-c2cc3cc(CN4CCNCC4)ccc3s2)c1Nc1cccc2[nH]ccc12 [Compound 359, 4-(1H-indol-4-ylamino)-5-[5-(piperazin-1-ylmethyl)-1-benzothien-2-yl]nicotinonitrile] | 20 nM |
| N#Cc1cncc(-c2cc3cc(CNC(=O)CCN)ccc3s2)c1Nc1cccc2[nH]ccc12 [Compound 360, N-({2-[5-cyano-4-(1H-indol-4-ylamino)pyridin-3-yl]-1-benzothien-5-yl}methyl)-b-alaninamide] | 2 nM |
| N#Cc1cncc(-c2ccc(NCCN3CCOCC3)nc2)c1Nc1cccc2[nH]ccc12 [Compound 361, 4-(1H-indol-4-ylamino)-6′-[(2-morpholin-4-ylethyl)amino]-3,3′-bipyridine-5-carbonitrile] | 40 nM |
| Cc1c(Nc2c(C#N)cncc2-c2ccc(NCCN3CCOCC3)nc2)ccc2[nH]ccc12 [Compound 362, 4-[(4-methyl-1H-indol-5-yl)amino]-6′-[(2-morpholin-4-ylethyl)amino]-3,3′bipyridine-5-carbonitrile] | 50 nM |
